Laboratory results taken from ChEMBL document CHEMBL1909046, “DrugMatrix in vitro pharmacology data”.

Tests used:
Interstitial collagenase = molecular target: T1, Interstitial collagenase (Homo sapiens, UniProt P03956); test: biochemical; format: tissue-based, Rheumatoid synovial fibroblasts;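 also: MMP-1 enzyme inhibition assay using a peptide substrate; in other assays of this panel Not Active means under 50% inhibition at 10 µM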
T1 sequence (P03956 whole entry): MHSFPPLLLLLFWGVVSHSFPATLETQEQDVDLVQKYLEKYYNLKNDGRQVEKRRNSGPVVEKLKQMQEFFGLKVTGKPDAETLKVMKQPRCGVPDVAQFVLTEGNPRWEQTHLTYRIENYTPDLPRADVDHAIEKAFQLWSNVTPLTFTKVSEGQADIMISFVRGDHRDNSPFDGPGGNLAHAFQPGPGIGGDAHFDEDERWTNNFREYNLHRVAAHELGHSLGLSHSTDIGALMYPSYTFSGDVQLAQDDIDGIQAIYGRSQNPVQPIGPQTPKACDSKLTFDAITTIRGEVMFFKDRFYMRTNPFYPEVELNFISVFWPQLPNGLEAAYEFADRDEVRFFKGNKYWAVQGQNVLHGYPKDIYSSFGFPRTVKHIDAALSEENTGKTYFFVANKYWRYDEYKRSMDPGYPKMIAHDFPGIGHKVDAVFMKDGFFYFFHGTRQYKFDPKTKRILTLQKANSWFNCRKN

[1] = DRUGMATRIX: Calcium Channel Type L, Benzothiazepine radioligand binding (ligand: [3H] Diltiazem); format: cell membranes, Rattus norvegicus, Wistar, Brain, Membrane; settings: Not Active = under 50% inhibition at 10 µM
[2] = molecular target: T2, Polyunsaturated fatty acid lipoxygenase ALOX15 (Oryctolagus cuniculus, UniProt P12530); test: biochemical; format: tissue-based, Reticulocytes;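 also: inhibition of 15-lipoxygenase enzyme activity measured with linoleic acid as the substrate; in other assays of this panel Not Active means under 50% inhibition at 10 µM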
T2 sequence (P12530 whole entry): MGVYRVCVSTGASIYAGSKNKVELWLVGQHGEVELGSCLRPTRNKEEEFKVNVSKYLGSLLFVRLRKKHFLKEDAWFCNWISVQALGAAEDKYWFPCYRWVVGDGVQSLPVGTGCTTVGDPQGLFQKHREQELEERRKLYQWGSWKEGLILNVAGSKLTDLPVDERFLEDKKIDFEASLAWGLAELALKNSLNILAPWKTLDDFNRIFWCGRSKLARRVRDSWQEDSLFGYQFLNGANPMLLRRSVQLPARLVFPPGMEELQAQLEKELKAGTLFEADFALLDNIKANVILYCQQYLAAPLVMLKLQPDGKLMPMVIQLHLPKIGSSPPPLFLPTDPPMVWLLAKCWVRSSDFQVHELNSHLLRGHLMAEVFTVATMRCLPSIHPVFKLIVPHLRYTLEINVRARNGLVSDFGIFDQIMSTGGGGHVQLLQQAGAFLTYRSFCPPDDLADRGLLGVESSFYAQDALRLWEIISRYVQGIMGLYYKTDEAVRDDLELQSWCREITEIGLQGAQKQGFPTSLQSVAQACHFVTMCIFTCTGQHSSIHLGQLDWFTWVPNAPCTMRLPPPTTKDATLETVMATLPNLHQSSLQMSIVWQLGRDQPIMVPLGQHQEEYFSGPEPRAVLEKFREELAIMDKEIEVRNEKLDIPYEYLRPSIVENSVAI

[3] = DRUGMATRIX: Phorbol Ester radioligand binding (ligand: [3H] PDBu); format: cell membranes, Mus musculus, ICR, Brain, Membrane; settings: Not Active = under 50% inhibition at 10 µM
[4] = DRUGMATRIX: Platelet-Derived Growth Factor (PDGF) radioligand binding (ligand: [125I] PDGF); format: cell-based; settings: nih3t3; Not Active = under 50% inhibition at 10 µM
Nitric oxide synthase 1 = Nitric oxide synthase 1 (Rattus norvegicus, UniProt P29476); format: tissue-based, Cerebellum; also: in other assays of this panel Not Active means under 50% inhibition at 10 µM
Chain of Nitric oxide synthase 1 (P29476 whole entry): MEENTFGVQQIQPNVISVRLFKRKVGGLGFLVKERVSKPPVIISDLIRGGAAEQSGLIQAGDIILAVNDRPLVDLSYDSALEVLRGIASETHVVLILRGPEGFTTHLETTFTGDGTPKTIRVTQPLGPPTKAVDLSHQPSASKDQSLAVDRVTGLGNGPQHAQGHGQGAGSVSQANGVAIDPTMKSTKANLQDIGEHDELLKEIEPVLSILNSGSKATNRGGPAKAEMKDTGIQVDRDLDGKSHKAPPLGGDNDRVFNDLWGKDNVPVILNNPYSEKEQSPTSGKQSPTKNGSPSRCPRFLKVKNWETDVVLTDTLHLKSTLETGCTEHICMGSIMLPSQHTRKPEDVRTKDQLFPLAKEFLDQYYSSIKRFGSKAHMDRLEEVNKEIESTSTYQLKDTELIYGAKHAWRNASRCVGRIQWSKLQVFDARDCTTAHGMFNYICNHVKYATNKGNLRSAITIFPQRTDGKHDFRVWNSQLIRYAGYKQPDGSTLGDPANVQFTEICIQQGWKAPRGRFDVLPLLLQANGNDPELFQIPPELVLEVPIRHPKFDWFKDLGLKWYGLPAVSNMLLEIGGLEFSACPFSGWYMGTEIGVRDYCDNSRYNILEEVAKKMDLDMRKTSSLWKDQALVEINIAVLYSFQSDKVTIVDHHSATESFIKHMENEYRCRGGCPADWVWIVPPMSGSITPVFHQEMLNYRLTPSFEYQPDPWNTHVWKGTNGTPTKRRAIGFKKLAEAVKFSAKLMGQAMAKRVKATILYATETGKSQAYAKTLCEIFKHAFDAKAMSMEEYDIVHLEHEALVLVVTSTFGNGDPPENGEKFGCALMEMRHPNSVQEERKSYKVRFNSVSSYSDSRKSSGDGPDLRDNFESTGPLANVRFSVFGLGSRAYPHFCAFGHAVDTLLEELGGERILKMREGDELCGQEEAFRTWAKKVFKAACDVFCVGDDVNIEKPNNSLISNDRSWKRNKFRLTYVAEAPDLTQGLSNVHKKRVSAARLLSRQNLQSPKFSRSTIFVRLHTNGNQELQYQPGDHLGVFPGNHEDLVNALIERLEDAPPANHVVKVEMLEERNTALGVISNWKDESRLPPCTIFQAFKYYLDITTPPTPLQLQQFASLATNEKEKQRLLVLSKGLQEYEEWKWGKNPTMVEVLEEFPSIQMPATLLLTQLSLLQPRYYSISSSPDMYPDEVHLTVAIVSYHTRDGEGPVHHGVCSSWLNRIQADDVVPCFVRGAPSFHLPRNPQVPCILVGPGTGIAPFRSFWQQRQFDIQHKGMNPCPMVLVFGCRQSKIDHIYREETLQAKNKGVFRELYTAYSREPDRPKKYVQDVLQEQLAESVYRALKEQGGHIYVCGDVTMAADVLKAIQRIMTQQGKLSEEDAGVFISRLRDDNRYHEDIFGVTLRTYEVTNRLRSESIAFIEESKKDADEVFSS

Estrogen receptor = molecular target: T3, Estrogen receptor (Homo sapiens, UniProt P03372); settings: sf9; also: in other assays of this panel Not Active means under 50% inhibition at 10 µM
T3 sequence (P03372 whole entry): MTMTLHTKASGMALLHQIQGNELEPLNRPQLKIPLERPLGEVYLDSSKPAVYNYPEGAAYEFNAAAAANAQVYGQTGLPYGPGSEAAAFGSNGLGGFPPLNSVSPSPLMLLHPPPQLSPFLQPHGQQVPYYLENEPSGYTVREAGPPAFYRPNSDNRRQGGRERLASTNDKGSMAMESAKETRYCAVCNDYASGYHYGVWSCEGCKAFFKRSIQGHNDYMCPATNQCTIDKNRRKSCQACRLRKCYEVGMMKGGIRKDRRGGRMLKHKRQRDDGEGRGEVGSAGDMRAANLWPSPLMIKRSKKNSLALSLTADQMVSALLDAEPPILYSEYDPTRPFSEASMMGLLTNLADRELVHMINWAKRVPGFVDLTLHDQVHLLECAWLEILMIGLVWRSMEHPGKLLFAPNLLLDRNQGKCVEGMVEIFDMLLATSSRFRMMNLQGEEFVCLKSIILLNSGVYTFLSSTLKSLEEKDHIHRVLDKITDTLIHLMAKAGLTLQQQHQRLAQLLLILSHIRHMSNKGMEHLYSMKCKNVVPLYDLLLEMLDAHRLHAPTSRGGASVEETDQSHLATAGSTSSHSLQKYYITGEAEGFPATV

Vasopressin V1a receptor = Vasopressin V1a receptor (Homo sapiens, UniProt P37288); format: cell membranes, Membrane; settings: hek293; also: in other assays of this panel Not Active means under 50% inhibition at 10 µM
Chain of Vasopressin V1a receptor (P37288 whole entry): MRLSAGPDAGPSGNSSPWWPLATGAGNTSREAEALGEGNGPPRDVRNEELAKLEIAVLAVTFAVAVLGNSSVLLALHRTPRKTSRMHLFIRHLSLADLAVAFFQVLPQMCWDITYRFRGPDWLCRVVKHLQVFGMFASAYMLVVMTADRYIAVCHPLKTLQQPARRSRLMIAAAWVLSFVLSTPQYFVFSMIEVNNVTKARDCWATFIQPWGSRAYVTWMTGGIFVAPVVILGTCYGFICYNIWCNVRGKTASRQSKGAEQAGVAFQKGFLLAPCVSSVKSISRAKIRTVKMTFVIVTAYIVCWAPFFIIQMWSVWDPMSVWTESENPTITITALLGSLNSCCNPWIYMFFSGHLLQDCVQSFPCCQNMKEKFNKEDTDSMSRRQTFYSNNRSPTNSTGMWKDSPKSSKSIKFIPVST

SMILES | IC50 (Interstitial collagenase) | IC50 ([1]; read-out: IC50) [µM] | Ki ([1]; read-out: Ki) [µM] | IC50 ([2]; reticulocytes) | IC50 [3] | Ki [3] | IC50 [4] | Ki [4] | IC50 (Nitric oxide synthase 1) | IC50 (Estrogen receptor) | IC50 [1] | Ki [1] | IC50 (Vasopressin V1a receptor) | IC50 ([2]; read-out: IC50) [nM]
CC(C)(C)NC(=O)[C@@H]1C[C@@H]2CCCC[C@@H]2CN1C[C@@H](O)[C@H](Cc1ccccc1)NC(=O)[C@H](CC(N)=O)NC(=O)c1ccc2ccccc2n1 | Not Active | 10.9 | 9.69 | Not Active | Not Active | Not Active | Not Active | Not Active | Not Active | Not Active |  |  |  | 
CC(=O)[C@@]1(O)CC[C@H]2[C@@H]3C[C@H](C)C4=CC(=O)CC[C@]4(C)[C@H]3CC[C@@]21C | Not Active |  |  | Not Active | Not Active | Not Active | Not Active | Not Active | Not Active | Not Active | Not Active | Not Active | Not Active | 
N[C@@H](Cc1ccc(N(CCCl)CCCl)cc1)C(=O)O | Not Active |  |  | Not Active | Not Active | Not Active | Not Active | Not Active | Not Active |  | Not Active | Not Active | Not Active | 
CCCCc1oc2ccccc2c1C(=O)c1cc(I)c(OCCN(CC)CC)c(I)c1 [AMIODARONE] | Not Active |  |  | Not Active |  |  |  |  | Not Active | Not Active |  |  | Not Active | 
OCCN(CCO)c1nc(N2CCCCC2)c2nc(N(CCO)CCO)nc(N3CCCCC3)c2n1 [DIPYRIDAMOLE] | Not Active |  |  |  | Not Active | Not Active | Not Active | Not Active | Not Active | Not Active | Not Active | Not Active | Not Active | 6960
Cc1oncc1C(=O)Nc1ccc(C(F)(F)F)cc1 [LEFLUNOMIDE] | Not Active |  |  | Not Active | Not Active | Not Active | Not Active | Not Active | Not Active | Not Active | Not Active | Not Active | Not Active | 
c1ccc([C@H]2CN3CCSC3=N2)cc1 [LEVAMISOLE] | Not Active |  |  | Not Active | Not Active | Not Active | Not Active | Not Active | Not Active | Not Active | Not Active | Not Active | Not Active | 
N[C@@H](Cc1ccc(O)c(O)c1)C(=O)O [LEVODOPA] | Not Active |  |  |  | Not Active | Not Active | Not Active | Not Active | Not Active |  | Not Active | Not Active | Not Active | 2260
N[C@@H](Cc1cc(I)c(Oc2ccc(O)c(I)c2)c(I)c1)C(=O)O [LIOTHYRONINE] | Not Active |  |  | Not Active |  |  |  |  | Not Active | Not Active |  |  | Not Active | 
O=NN(CCCl)C(=O)NC1CCCCC1 [LOMUSTINE] | Not Active |  |  | Not Active | Not Active | Not Active | Not Active | Not Active | Not Active |  | Not Active | Not Active | Not Active | 
CCOC(=O)N1CCC(=C2c3ccc(Cl)cc3CCc3cccnc32)CC1 [LORATADINE] | Not Active |  |  | Not Active | Not Active | Not Active | Not Active | Not Active | Not Active | Not Active | Not Active | Not Active | Not Active | 
Cn1ccnc1S [METHIMAZOLE] | Not Active |  |  | Not Active | Not Active | Not Active | Not Active | Not Active | Not Active | Not Active | Not Active | Not Active | Not Active | 
CC[C@@H](CO)NC(=O)[C@@H]1C=C2c3cccc4[nH]cc(c34)C[C@H]2N(C)C1 [METHYLERGONOVINE] | Not Active |  |  | Not Active | Not Active | Not Active | Not Active | Not Active | Not Active | Not Active | Not Active | Not Active | Not Active | 
COc1nc(C)nc(Cl)c1NC1=NCCN1 [MOXONIDINE] | Not Active |  |  | Not Active | Not Active | Not Active | Not Active | Not Active | Not Active | Not Active | Not Active | Not Active | Not Active | 
CN1CCN(CCCN2c3ccccc3Sc3ccc(Cl)cc32)CC1 [PROCHLORPERAZINE] | Not Active |  |  | Not Active |  |  |  |  | Not Active | Not Active |  |  | Not Active | 
CO[C@H]1/C=C/O[C@@]2(C)Oc3c(C)c(O)c4c(O)c(c(/C=N/N5CCN(C)CC5)c(O)c4c3C2=O)NC(=O)/C(C)=C\C=C\[C@H](C)[C@H](O)[C@@H](C)[C@@H](O)[C@@H](C)[C@H](OC(C)=O)[C@@H]1C [RIFAMPIN] | Not Active |  |  |  | Not Active | Not Active | Not Active | Not Active | Not Active |  | Not Active | Not Active | Not Active | 2950
Cc1nc2n(c(=O)c1CCN1CCC(c3noc4cc(F)ccc34)CC1)CCCC2 [RISPERIDONE] | Not Active |  |  | Not Active |  |  |  |  | Not Active | Not Active |  |  | Not Active | 
CC/C(=C(\c1ccccc1)c1ccc(OCCN(C)C)cc1)c1ccccc1 [TAMOXIFEN] | Not Active |  |  | Not Active |  |  |  |  | Not Active |  |  |  | Not Active | 
CC(C)N1CCN(c2ccc(OCC3COC(Cn4cncn4)(c4ccc(Cl)cc4Cl)O3)cc2)CC1 (stereo unspecified) [TERCONAZOLE] | Not Active | 3.01 | 2.67 |  | Not Active | Not Active |  |  | Not Active | Not Active |  |  | Not Active | 2450
CC1(C)O[C@@H]2C[C@H]3[C@@H]4CCC5=CC(=O)C=C[C@]5(C)[C@@]4(F)[C@@H](O)C[C@]3(C)[C@]2(C(=O)CO)O1 [TRIAMCINOLONE ACETONIDE] | Not Active |  |  | Not Active | Not Active | Not Active | Not Active | Not Active | Not Active |  | Not Active | Not Active | Not Active | 
NS(=O)(=O)c1cc2c(cc1Cl)NC(C(Cl)Cl)NS2(=O)=O (stereo unspecified) [TRICHLORMETHIAZIDE] | Not Active |  |  | Not Active | Not Active | Not Active | Not Active | Not Active | Not Active |  | Not Active | Not Active | Not Active | 
